Source: patent publication US8952054B2, “Small molecule inhibitors of MUC1 and methods of identifying the same” (Dana-Farber Cancer Institute, Inc., priority 2010, dated 2015)

How the values were obtained:
[1] = system: BT474 cells; assay: BT474 viability (MTS) and colony formation; format: cell-based, human
Method: (§1) FIGS. 16A-D—Effects of apigenin on breast cancer cells without and with endogenous MUC1 expression. (FIG. 16A) Lysates from human MCF-7, HCC1937 and BT474 cells were immunoblotted with the indicated antibodies. (FIG. 16B) BT474 cells were treated with indicated concentrations of apigenin and baicalein for 3 d, washed and then treated for an additional 3 d. Lysates were immunoblotted with the indicated antibodies. (FIG. 16C) BT474 (triangles) and HCC1937 (squares) cells were treated with apigenin for 3 d. Viable cell numbers were determined by MTS assay. The results (mean+SD of 3 determinations) are expressed as percentage of control growth in the presence of DMSO. (FIG. 16D) BT474 cells were plated at a density of 5000 cells/6 cm dish. At 24 h after seeding, DMSO or apigenin at concentrations of 25, 50 and 75 μM was added to the medium. After 2 weeks, colonies were stained with crystal violet. The results (mean+SD of 3 determinations) are expressed as percentage of control colony formation in the presence of DMSO.

[2] = target: T1, MUC1-C (Homo sapiens, UniProt P15941); assay: Immunoblot of MUC1-C expression in BT474 cells; format: cell-based; design: endogenous in cells; conditions: BT474, 3 d then additional 3 d
T1 sequence (P15941 1098-1255 limits assumed): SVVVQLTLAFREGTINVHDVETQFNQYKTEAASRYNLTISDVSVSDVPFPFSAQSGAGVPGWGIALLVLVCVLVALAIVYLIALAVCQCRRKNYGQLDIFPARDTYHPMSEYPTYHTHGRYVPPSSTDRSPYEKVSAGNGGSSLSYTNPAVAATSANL
Method: as §1

[3] = system: MCF-10A cells; assay: Cell cycle distribution and growth of MCF-10A cells (peptide); format: cell-based, human; conditions: 5 μM
Method: FIGS. 4A-E. Selectivity of MUC1/CQC for MUC1 expressing breast cancer cells. (FIG. 4A) ZR-75-1 cells were stably infected with an empty lentivirus (vector) or one expressing a MUC1 siRNA. Lysates for the infected cells were immunoblotted with the indicated antibodies. (FIG. 4B) ZR-75-1/vector cells were left untreated (diamonds), and ZR-75-1/vector (squares) and ZR-75-1/MUC1 siRNA (triangles) cells were treated with 5 μM MUC1/CQC peptide for the indicated times. Viable cell number was determined by trypan blue exclusion. (FIG. 4C) 293 cells were left untreated (diamonds), and treated with 5 μM MUC1/CQC (squares) or MUC1/AQA (triangles) for the indicated times. Viable cell number was determined by trypan blue exclusion. (FIG. 4D) MCF-10A cells were left untreated (left panel), and treated with 5 μM MUC1/CQC (middle panel) or MUC1/AQA (right panel). At 3 d, cells were analyzed for cell cycle distribution. […] Viable cell number was determined by trypan blue exclusion.
Human breast cancer ZR-75-1, ZR-75-1/vector, ZR-75-1/MUC1siRNA (Ren et al., 2004) cell lines were grown in RPMI1640 medium supplemented with 10% heat-inactivated fetal bovine serum (HI-FBS), 100 U/ml penicillin, and 100 μg/ml streptomycin (Invitrogen) in a humidified incubator at 37° C. and 5% CO2. […] Viability was determined by trypan blue exclusion. […]

[4] = target: T1, MUC1-C; assay: Immunoblot of nuclear MUC1-C levels in MCF-7 cells (peptide); format: cell-based; design: Human ZR-75-1 and MCF-7 breast cancer cells overexpress endogenous MUC1; endogenous in cells; host or cells: ZR-75-1; MCF-7; conditions: MCF-7, 5 μM peptide, 3 d
Method: FIGS. 2A-C. MUC1/CQC peptide blocks nuclear localization of MUC1-C. (FIG. 2A) ZR-75-1 cells were incubated with 5 μM FITC-labeled MUC1/CQC peptide for the indicated times and then analyzed by flow cytometry. The mean fluorescence index (MFI) is included in each of the panels. (FIGS. 2B-C) ZR-75-1 (FIG. 2B) and MCF-7 (FIG. 2C) cells were incubated in the presence of 5 μM MUC1/CQC or MUC1/AQA peptide for 3 d. Whole cell lysates (WCL) (left panels) and nuclear lysates (right panels) were immunoblotted with the indicated antibodies.
Whole cell and nuclear lysates were prepared as described (Leng et al., 2007). Soluble proteins were subjected to immunoprecipitation with anti-Flag (Sigma, St. Louis, Mo.). Immunoprecipitates and soluble proteins were analyzed by immunoblotting with anti-His (Cell Signaling Technology, Danvers, Mass.), anti-GFP (Millipore, Danvers, Mass.), anti-Flag, anti-MUC1-C (Ab1; NeoMarkers, Fremont, Calif.), anti-lamin B (EMD, La Jolla, Calif.) or anti-β-actin (Sigma). Reactivity was detected with horseradish peroxidase-conjugated second antibodies and chemiluminescence.

[5] = Body weight of nude mice given peptide; format: in vivo, nude (nu/nu) mice
Method: To determine if administration of the MUC1/CQC peptide is associated with effects on body weight, five female nude (nu/nu) mice were injected intraperitoneally (IP) once each day at a dose of 50 mg/kg. […] To assess anti-tumor activity, ZR-75-1 cells (1×10^7) were implanted subcutaneously into the flanks of nude mice. After 12 d, mice bearing tumors of approximately 150 mm^3 were treated with the MUC1/CQC peptide at doses of 10 and 50 mg/kg/d. As controls, mice were treated with vehicle alone or with the MUC1/AQA peptide. Administration of the MUC1/CQC peptide at 10 mg/kg/d×21 d slowed growth as compared to that obtained with the MUC1/AQA peptide given at 50 mg/kg/d (FIG. 5A). […] Consequently, treatment was stopped and the mice were monitored for regrowth. […] To assess in part the basis for the activity, tumors harvested from control and treated mice were examined by histopathology. […] Sections of the tumors were also stained with an antibody against MUC1.

| SMILES | clonogenic survival ([1]; BT474, 25, 50 and 75 μM, 2 weeks) | viability (MTS) ([1]; BT474, 3 d) | MUC1-C expression [2] | growth / viable cell number [3] | cell cycle distribution ([3]; 3 d) | nuclear MUC1-C levels [4] | body weight ([5]; 50 mg/kg IP once each day over 11 d) | body weight ([5]; next 28 d after stopping administration, data not shown) |
| --- | --- | --- | --- | --- | --- | --- | --- | --- |
| O=c1cc(-c2ccc(O)cc2)oc2cc(O)cc(O)c12 [Apigenin, 4′,5,7-trihydroxyflavone] | concentration dependent decreases in clonogenic survival | loss of viability | downregulation of MUC1-C expression | – | – | – | – | – |
| CC[C@H](C)[C@H](NC(=O)[C@H](CC(=O)O)NC(=O)[C@H](CC(C)C)NC(=O)[C@H](CCC(N)=O)NC(=O)CNC(=O)[C@H](Cc1ccc(O)cc1)NC(=O)[C@H](CC(N)=O)NC(=O)[C@H](CCCCN)NC(=O)[C@H](CCCNC(=N)N)NC(=O)[C@H](CCCNC(=N)N)NC(=O)[C@H](CS)NC(=O)[C@H](CCC(N)=O)NC(=O)[C@H](CS)NC(=O)[C@@H](CCCNC(=N)N)NC(=O)[C@@H](CCCNC(=N)N)NC(=O)[C@@H](CCCNC(=N)N)NC(=O)[C@@H](CCCNC(=N)N)NC(=O)[C@@H](CCCNC(=N)N)NC(=O)[C@@H](CCCNC(=N)N)NC(=O)[C@@H](CCCNC(=N)N)NC(=O)[C@@H](CCCNC(=N)N)NC(=O)[C@H](N)CCCNC(=N)N)C(=O)N[C@@H](Cc1ccccc1)C(=O)N1CCC[C@H]1C(=O)O [MUC1/CQC] | – | – | – | no effect | no effect | down-regulation of nuclear MUC1-C levels | no apparent effect | no subsequent effect |
